{"source": "paper PMC3482212", "about": "“Autoinducers Act as Biological Timers in Vibrio harveyi” (PLoS ONE, 2012)", "key": {"[1]": {"molecular_target": "T1, LuxPQ (LuxQ in interplay with LuxP) (Vibrio harveyi, UniProt P54300)", "T1 construct": "full-length wild-type LuxQ with C-terminal His6 in inverted membrane vesicles of E. coli TKR2000 (pNKQ); read-out phosphorylation of purified His6-LuxU; with Autoinducer 2 sensor kinase/phosphatase LuxQ", "T1 sequence (P54302 whole entry)": "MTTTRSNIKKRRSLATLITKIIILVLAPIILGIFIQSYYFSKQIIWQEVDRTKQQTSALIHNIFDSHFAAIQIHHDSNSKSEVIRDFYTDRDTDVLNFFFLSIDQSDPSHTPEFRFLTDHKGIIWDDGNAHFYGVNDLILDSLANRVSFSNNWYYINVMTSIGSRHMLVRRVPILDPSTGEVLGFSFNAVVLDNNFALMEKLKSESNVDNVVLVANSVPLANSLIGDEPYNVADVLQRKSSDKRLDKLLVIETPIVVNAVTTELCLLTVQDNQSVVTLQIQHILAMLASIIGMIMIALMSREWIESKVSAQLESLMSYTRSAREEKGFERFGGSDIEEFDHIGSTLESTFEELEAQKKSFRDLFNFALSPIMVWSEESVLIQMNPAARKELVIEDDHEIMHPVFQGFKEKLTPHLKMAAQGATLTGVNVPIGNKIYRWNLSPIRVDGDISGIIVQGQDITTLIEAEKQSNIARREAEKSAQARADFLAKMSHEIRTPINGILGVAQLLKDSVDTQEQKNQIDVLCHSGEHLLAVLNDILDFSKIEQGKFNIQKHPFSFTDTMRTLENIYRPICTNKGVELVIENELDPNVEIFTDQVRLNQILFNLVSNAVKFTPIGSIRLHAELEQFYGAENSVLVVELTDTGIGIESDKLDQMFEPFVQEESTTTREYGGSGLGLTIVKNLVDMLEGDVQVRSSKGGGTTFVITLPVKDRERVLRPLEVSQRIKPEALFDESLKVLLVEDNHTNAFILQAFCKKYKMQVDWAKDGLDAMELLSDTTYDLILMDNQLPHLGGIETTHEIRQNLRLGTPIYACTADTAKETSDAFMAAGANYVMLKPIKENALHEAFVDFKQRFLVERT", "T1 sequence (P54300 24-365)": "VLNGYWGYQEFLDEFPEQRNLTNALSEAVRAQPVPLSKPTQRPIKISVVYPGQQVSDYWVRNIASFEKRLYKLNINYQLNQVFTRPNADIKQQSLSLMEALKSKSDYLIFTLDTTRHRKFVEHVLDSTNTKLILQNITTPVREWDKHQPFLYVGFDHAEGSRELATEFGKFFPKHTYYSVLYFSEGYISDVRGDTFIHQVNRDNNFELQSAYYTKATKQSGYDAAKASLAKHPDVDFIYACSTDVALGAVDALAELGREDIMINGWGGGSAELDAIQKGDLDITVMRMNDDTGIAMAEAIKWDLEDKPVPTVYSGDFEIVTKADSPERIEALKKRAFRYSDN", "experiment": "inhibition of LuxU phosphorylation by [gamma-32P]ATP, membrane vesicles, SDS-PAGE autoradiography", "assay_type": "biochemical", "conditions": "read-out: half-maximal inhibition"}, "[2]": {"molecular_target": "LuxN (Vibrio campbellii, UniProt A7MRY4)", "sequence (A7MRY4 whole entry)": "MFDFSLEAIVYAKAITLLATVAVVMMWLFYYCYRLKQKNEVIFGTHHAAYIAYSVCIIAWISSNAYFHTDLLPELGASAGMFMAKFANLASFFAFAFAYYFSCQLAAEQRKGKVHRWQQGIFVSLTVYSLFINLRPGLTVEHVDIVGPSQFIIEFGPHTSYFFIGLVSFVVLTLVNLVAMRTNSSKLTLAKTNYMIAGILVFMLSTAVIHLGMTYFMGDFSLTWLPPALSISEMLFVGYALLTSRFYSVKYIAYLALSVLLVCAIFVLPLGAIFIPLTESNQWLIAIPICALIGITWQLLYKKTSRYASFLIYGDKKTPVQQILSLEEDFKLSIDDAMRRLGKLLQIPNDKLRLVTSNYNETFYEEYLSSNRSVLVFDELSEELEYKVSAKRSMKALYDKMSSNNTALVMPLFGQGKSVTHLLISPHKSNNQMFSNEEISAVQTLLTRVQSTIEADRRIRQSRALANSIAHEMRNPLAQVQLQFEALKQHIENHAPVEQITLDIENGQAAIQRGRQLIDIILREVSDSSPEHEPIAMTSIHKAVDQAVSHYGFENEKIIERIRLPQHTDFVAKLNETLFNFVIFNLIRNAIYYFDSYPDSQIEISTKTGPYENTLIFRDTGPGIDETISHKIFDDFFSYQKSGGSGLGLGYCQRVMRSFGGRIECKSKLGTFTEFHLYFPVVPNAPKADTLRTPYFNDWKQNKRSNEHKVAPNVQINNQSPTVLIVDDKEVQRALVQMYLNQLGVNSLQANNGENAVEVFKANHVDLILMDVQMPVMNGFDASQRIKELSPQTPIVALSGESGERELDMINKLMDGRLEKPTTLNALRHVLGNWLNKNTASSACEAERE", "experiment": "biochemical", "conditions": "read-out: % inhibition at 10 μM"}}, "data": [{"smiles": "C[C@]12OC[C@H](O)[C@@]1(O)O[B-](O)(O)O2", "note": "[AI-2]", "values": [{"measurement": "IC50", "setting": "[1]", "value": 5, "unit": "µM"}]}, {"smiles": "C[C@@H](O)CC(=O)N[C@H]1CCOC1=O", "note": "[HAI-1, N-(3-hydroxybutyryl)-homoserine lactone]", "values": [{"measurement": "inhibition at 10 µM", "setting": "[2]", "value": 57, "unit": "%"}]}]}
